≈ marks a conversion by molar mass, not a printed value. Calls of active or inactive are those of the source. No cut-off for these calls is given here.
Assays:
Bacillus subtilis = assay: Antimicrobial activity against Bacillus subtilis ATCC 23857 after 18 to 20 hrs by microbroth dilution method; type: functional
Bacillus anthracis = assay: Antimicrobial activity against Bacillus anthracis Sterne 34F2 after 18 to 20 hrs by microbroth dilution method; type: functional
Bacillus cereus = assay: Antimicrobial activity against Bacillus cereus ATCC 14579 after 18 to 20 hrs by microbroth dilution method; type: functional
Enterococcus faecalis = assay: Antimicrobial activity against Enterococcus faecalis ATCC 33186 after 18 to 20 hrs by microbroth dilution method; type: functional
Staphylococcus aureus [1] = assay: Antimicrobial activity against methicillin-susceptible Staphylococcus aureus ATCC 29213 after 18 to 20 hrs by microbroth dilution method; type: functional
Staphylococcus aureus [2] = assay: Antimicrobial activity against methicillin-susceptible Staphylococcus aureus NRS70 after 18 to 20 hrs by microbroth dilution method; type: functional
Streptococcus pneumoniae = assay: Antimicrobial activity against Streptococcus pneumoniae R6 after 18 to 20 hrs by microbroth dilution method; type: functional
Streptococcus pyogenes = assay: Antimicrobial activity against Streptococcus pyogenes ATCC 700294 after 18 to 20 hrs by microbroth dilution method; type: functional; conditions: M1 GAS
Acinetobacter baumannii = assay: Antimicrobial activity against Acinetobacter baumannii ATCC 19606 after 18 to 20 hrs by microbroth dilution method; type: functional; conditions: ATCC 19606 = CIP 70.34 = JCM 6841
Enterobacter cloacae = assay: Antimicrobial activity against Enterobacter cloacae ATCC 13047 after 18 to 20 hrs by microbroth dilution method; type: functional; conditions: subsp. cloacae ATCC 13047
Escherichia coli [3] = assay: Antimicrobial activity against Escherichia coli BW25113 after 18 to 20 hrs by microbroth dilution method; type: functional
Escherichia coli [4] = assay: Antimicrobial activity against tolC deficient Escherichia coli JW5503-1 after 18 to 20 hrs by microbroth dilution method; type: functional
Klebsiella pneumoniae [5] = assay: Antimicrobial activity against Klebsiella pneumoniae ATCC 33495 after 18 to 20 hrs by microbroth dilution method; type: functional
Pseudomonas aeruginosa = assay: Antimicrobial activity against Pseudomonas aeruginosa PAO1 after 18 to 20 hrs by microbroth dilution method; type: functional
Proteus mirabilis = assay: Antimicrobial activity against Proteus mirabilis ATCC 25933 after 18 to 20 hrs by microbroth dilution method; type: functional
[6] = test system: Stenotrophomonas maltophilia; assay: Antimicrobial activity against Stenotrophomonas maltophilia ATCC 700475 after 18 to 20 hrs by microbroth dilution method; type: functional
Staphylococcus aureus [7] = assay: Potency index, ratio of cefaclor MIC to compound MIC for […] Staphylococcus aureus ATCC 29213; type: functional
Staphylococcus aureus [8] = assay: Potency index, ratio of […] MIC to compound MIC for […] Staphylococcus aureus ATCC 29213; type: functional
Staphylococcus aureus [9] = assay: Potency index, ratio of cefaclor MIC to compound MIC for methicillin-resistant Staphylococcus aureus NRS70; type: functional
Staphylococcus aureus [10] = assay: Potency index, ratio of […] MIC to compound MIC for methicillin-resistant Staphylococcus aureus NRS70; type: functional
Escherichia coli [11] = assay: Induction of proton motive force collapse in Escherichia coli BW25113 at 100 uM by flow cytometry; type: functional, organism-based
HepG2 = assay: Cytotoxicity against human HepG2 cells; type: cell-based
Vero = assay: Cytotoxicity against African green monkey Vero cells; type: cell-based; conditions: Chlorocebus sabaeus
Klebsiella pneumoniae [12] = assay: Antimicrobial activity against Klebsiella pneumoniae isolate SJ 1 after 18 to 20 hrs by microbroth dilution method; type: functional
Klebsiella pneumoniae [13] = assay: Antimicrobial activity against Klebsiella pneumoniae isolate SJ 2 after 18 to 20 hrs by microbroth dilution method; type: functional
Klebsiella pneumoniae [14] = assay: Antimicrobial activity against Klebsiella pneumoniae isolate SJ 3 after 18 to 20 hrs by microbroth dilution method; type: functional
Klebsiella pneumoniae [15] = assay: Antimicrobial activity against Klebsiella pneumoniae isolate SJ 4 after 18 to 20 hrs by microbroth dilution method; type: functional
Klebsiella pneumoniae [16] = assay: Antimicrobial activity against Klebsiella pneumoniae isolate SJ 5 after 18 to 20 hrs by microbroth dilution method; type: functional
Escherichia coli [17] = assay: Antimicrobial activity against Escherichia coli isolate SJ 1 after 18 to 20 hrs by microbroth dilution method; type: functional
Escherichia coli [18] = assay: Antimicrobial activity against Escherichia coli isolate SJ 2 after 18 to 20 hrs by microbroth dilution method; type: functional
Escherichia coli [19] = assay: Antimicrobial activity against Escherichia coli isolate SJ 3 after 18 to 20 hrs by microbroth dilution method; type: functional
Escherichia coli [20] = assay: Antimicrobial activity against Escherichia coli isolate SJ 4 after 18 to 20 hrs by microbroth dilution method; type: functional
Escherichia coli [21] = assay: Antimicrobial activity against Escherichia coli isolate SJ 5 after 18 to 20 hrs by microbroth dilution method; type: functional
Escherichia coli [22] = assay: Antimicrobial activity against Escherichia coli isolate SJ 6 after 18 to 20 hrs by microbroth dilution method; type: functional
Escherichia coli [23] = assay: Antimicrobial activity against Escherichia coli ATCC 35218 expressing TEM-1 beta lactamases after 18 to 20 hrs by microbroth dilution method; type: functional
Escherichia coli [24] = assay: Antimicrobial activity against Escherichia coli ATCC 25922 after 18 to 20 hrs by microbroth dilution method; type: functional

| SMILES | MIC (Bacillus subtilis) | MIC (Bacillus anthracis) | MIC (Bacillus cereus) | MIC (Enterococcus faecalis) | MIC (Staphylococcus aureus [1]) | MIC (Staphylococcus aureus [2]) | MIC (Streptococcus pneumoniae) | MIC (Streptococcus pyogenes) | MIC (Acinetobacter baumannii) | MIC (Enterobacter cloacae) | MIC (Escherichia coli [3]) | MIC (Escherichia coli [4]) | MIC (Klebsiella pneumoniae [5]) | MIC (Pseudomonas aeruginosa) | MIC (Proteus mirabilis) | MIC [6] | Ratio (Staphylococcus aureus [7]) | Ratio (Staphylococcus aureus [8]) | Ratio (Staphylococcus aureus [9]) | Ratio (Staphylococcus aureus [10]) | further results |
| --- | --- | --- | --- | --- | --- | --- | --- | --- | --- | --- | --- | --- | --- | --- | --- | --- | --- | --- | --- | --- | --- |
| C=CC1=C(C(=O)O)N2C(=O)[C@@H](NC(=O)CCNC(=O)C3=C(O)C(CC(C)C)NC3=O)[C@H]2SC1 (some centres not stated) | 6.25 µg/mL (≈ 13.1 µM) | 6.25 µg/mL (≈ 13.1 µM) | > 200 µg/mL | > 200 µg/mL | 3.13 µg/mL (≈ 6.54 µM) | 3.13 µg/mL (≈ 6.54 µM) | 6.25 µg/mL (≈ 13.1 µM) | 12.5 µg/mL (≈ 26.1 µM) | > 200 µg/mL | > 200 µg/mL | > 200 µg/mL | > 200 µg/mL | > 200 µg/mL | > 200 µg/mL | 100 µg/mL (≈ 209 µM) | > 200 µg/mL | 32 | 64 | 32 | 64 |  |
| CC(=O)OCC1=C(C(=O)O)N2C(=O)[C@@H](NC(=O)CCNC(=O)C3=C(O)C(CC(C)C)NC3=O)[C@H]2SC1 (some centres not stated) | 3.13 µg/mL (≈ 5.97 µM) | 25 µg/mL (≈ 47.7 µM) | > 200 µg/mL | 200 µg/mL (≈ 381 µM) | 6.25 µg/mL (≈ 11.9 µM) | 6.25 µg/mL (≈ 11.9 µM) | 12.5 µg/mL (≈ 23.8 µM) | 12.5 µg/mL (≈ 23.8 µM) | > 200 µg/mL | > 200 µg/mL | > 200 µg/mL | > 200 µg/mL | > 200 µg/mL | > 200 µg/mL | 200 µg/mL (≈ 381 µM) | > 200 µg/mL | >=16 | >=16 | >=16 | >=16 |  |
| CO[C@@]1(NC(=O)CCCC(=O)C2=C(O)[C@@H](CCCNC(=N)N)NC2=O)C(=O)N2C(C(=O)O)=C(CSc3nnnn3C)CS[C@@H]21 |  |  |  |  |  |  |  |  | > 200 µg/mL |  | 6.25 µg/mL (≈ 9.58 µM) | 6.25 µg/mL (≈ 9.58 µM) | 6.25 µg/mL (≈ 9.58 µM) | > 200 µg/mL | 6.25 µg/mL (≈ 9.58 µM) |  |  |  |  |  | Activity (Escherichia coli [11]): inactive; IC50 (HepG2): > 200 µM; IC50 (Vero): > 200 µM; MIC (Klebsiella pneumoniae [12]): 3.13 µg/mL (≈ 4.8 µM); MIC (Klebsiella pneumoniae [13]): 3.13 µg/mL (≈ 4.8 µM); MIC (Klebsiella pneumoniae [14]): 6.25 µg/mL (≈ 9.58 µM); MIC (Klebsiella pneumoniae [15]): 6.25 µg/mL (≈ 9.58 µM); MIC (Klebsiella pneumoniae [16]): 12.5 µg/mL (≈ 19.2 µM); MIC (Escherichia coli [17]): 3.13 µg/mL (≈ 4.8 µM); MIC (Escherichia coli [18]): 3.13 µg/mL (≈ 4.8 µM); MIC (Escherichia coli [19]): 3.13 µg/mL (≈ 4.8 µM); MIC (Escherichia coli [20]): 25 µg/mL (≈ 38.3 µM); MIC (Escherichia coli [21]): 12.5 µg/mL (≈ 19.2 µM); MIC (Escherichia coli [22]): 100 µg/mL (≈ 153 µM); MIC (Escherichia coli [23]): 3.13 µg/mL (≈ 4.8 µM); MIC (Escherichia coli [24]): 3.13 µg/mL (≈ 4.8 µM) |
| CO[C@@]1(NC(=O)CCCC(=O)C2=C(O)[C@@H](CC(C)C)NC2=O)C(=O)N2C(C(=O)O)=C(CSc3nnnn3C)CS[C@@H]21 |  |  |  |  |  |  |  |  | > 200 µg/mL |  | 50 µg/mL (≈ 82 µM) | 12.5 µg/mL (≈ 20.5 µM) | 100 µg/mL (≈ 164 µM) | > 200 µg/mL | 12.5 µg/mL (≈ 20.5 µM) |  |  |  |  |  | Activity (Escherichia coli [11]): inactive; MIC (Klebsiella pneumoniae [12]): 12.5 µg/mL (≈ 20.5 µM); MIC (Klebsiella pneumoniae [13]): 50 µg/mL (≈ 82 µM); MIC (Klebsiella pneumoniae [14]): 50 µg/mL (≈ 82 µM); MIC (Klebsiella pneumoniae [15]): > 200 µg/mL; MIC (Klebsiella pneumoniae [16]): 200 µg/mL (≈ 328 µM); MIC (Escherichia coli [17]): 100 µg/mL (≈ 164 µM); MIC (Escherichia coli [18]): 200 µg/mL (≈ 328 µM); MIC (Escherichia coli [19]): 100 µg/mL (≈ 164 µM); MIC (Escherichia coli [20]): > 200 µg/mL; MIC (Escherichia coli [21]): 200 µg/mL (≈ 328 µM); MIC (Escherichia coli [22]): > 200 µg/mL; MIC (Escherichia coli [23]): 50 µg/mL (≈ 82 µM); MIC (Escherichia coli [24]): > 200 µg/mL |

— ChEMBL document CHEMBL4229518, “New β-lactam - Tetramic acid hybrids show promising antibacterial activities” (Bioorg Med Chem Lett, 2018)
